For this test, the system named is dorsal root ganglia neurons. Briefly: Field stimulation of cultured neurons, membrane potential by di8ANEPPS fluorescence. It counts as cell-based, rat. As to conditions: caffeine added to NTFL.

Source text: The procedure below details a study performed on one type of cultured nerve cells, namely dorsal root ganglia neurons, using a 10% solution of glycerolphospholipids in combination with inulin (NTFL).
The cultured cells were then exposed to an aqueous solution of the lipid supplement comprising glycerolphospholipids in combination with inulin, referred to as NTFL nanomicelles.
This was used as an indicator of membrane potential instead of microelectrodes because patching these neurons or the use of microelectrodes can be difficult in these studies in the presence of the NTFL nanomicellles solutions.
To perform the comparison, electrodes were applied to the bath containing the cultured neurons and field stimulation was provided by passed current through the bath. This caused depolarization of the nerve cells resulting in fluorescence of the di8ANEPPS.

For `Cn1c(=O)c2c(ncn2C)n(C)c1=O` [caffeine], the “effect on nerve conduction” value is reported as “did not appear to have an effect on nerve conduction”.

Values taken from patent publication US11253531B2, “Lipid supplements for reducing nerve action potentials” (Nutritional Therapeutics, Inc., priority 2011, dated 2022).
